According to patent US20260078099A1, “COMPOUND, PREPARATION METHOD THEREOF, AND LIPID NANOPARTICLE AND PHARMACEUTICAL COMPOSITION” (priority 2023, published 2026):

The compounds below were run on mice (assay: Bioluminescent study, intramuscular injection of F-luc mRNA LNPs). Settings: F-luc luminescence flux normalized to MC3; 0.25 mg/kg intramuscular, mice n=3, 6-hour time point.
Format: in vivo
Protocol: The efficacy of nanoparticle compositions was evaluated using bioluminescent studies. A dose of 0.25 mg/kg (mpk) of the formulation was administered to mice (n=3) via intramuscular injection, and bioluminescence was measured at a 6-hour time point. The test lipid nanoparticles from the MC3 formulation were evaluated, and in some cases, controls (e.g., PBS controls) were assessed for comparison.
The characteristics of the test lipid nanoparticles measured from the test groups, including F-luc luminescence intensity, are listed in the table below.
With `CCCCCCCCC(C(=O)NCCCCCCCCCC(=O)OC(CCCC)CCCCCC)N(CCCN1CCCC1)C(=O)CCCCCCCCCC(=O)OC(CCCC)CCCCCC` (centres unmarked) [Compound A3] the “Relative Total flux” value was “C (C: ≥0.1 and <1)”.
For `CCCCC/C=C\C/C=C\CCCCCCCC(=O)N(CCCN1CCCC1)C(CCCCCCCCCCC)C(=O)NCCCCCCCCCCCCCC` (centres unmarked) [Compound A22], the “Relative Total flux” value was “C (C: ≥0.1 and <1)”.
With `CCCCC/C=C\C/C=C\CCCCCCCC(=O)N(CCCCN1CCCC1)C(CCCCCCCCCCC)C(=O)NCCCCCCCCCCCCCC` (centres unmarked) [Compound A24] the “Relative Total flux” value was “C (C: ≥0.1 and <1)”.
In the case of `CCCCCCCCCCCCCCNC(=O)C(CCCCCCCCCCC)N(CCCCN1CCCC1)C(=O)CCCCCCC(=O)OC(CCCCCCCC)CCCCCCCC` (centres unmarked) [Compound A25], the “Relative Total flux” value is reported as “D (D: <0.1.)”.
`CCCCCCCCNC(=O)C(CCCCCCCC)N(CCCCN1CCCC1)C(=O)CCCCCCC(=O)OC(CCCCCCCC)CCCCCCCC` (centres unmarked) [Compound A37] was tested, and the “Relative Total flux” value was “B (B: ≥1 and <2)”.
In the case of `CCCCCCCCNC(=O)C(CCCCCCCC)N(CCN(CC)CC)C(=O)CCCCCCC(=O)OC(CCCCCCCC)CCCCCCCC` (centres unmarked) [Compound A38], the “Relative Total flux” value is reported as “A (A: ≥2)”.
With `CCCCCCCCNC(=O)C(CCCCCCCC)N(CC1CCCN(C)C1)C(=O)CCCCCCC(=O)OC(CCCCCCCC)CCCCCCCC` (centres unmarked) [Compound A39] the “Relative Total flux” value was “A (A: ≥2)”.
With `CCCCCCCCC(CCCCCC)COC(=O)CCCCCNC(=O)C(CCCCC)N(CCCN(C)C)C(=O)CCCCCC(=O)OCC(CCCCCCCC)CCCCCCCC` (centres unmarked) [Compound A43] the “Relative Total flux” value was “A (A: ≥2)”.
With `CCCCCCCCC(CCCCCC)COC(=O)CCCCCNC(=O)C(CCCCC)N(CCCCN(C)C)C(=O)CCCCCC(=O)OCC(CCCCCC)CCCCCCCC` (centres unmarked) [Compound A44] the “Relative Total flux” value was “B (B: ≥1 and <2)”.
For `CCCCCCCCC(CCCCCCCC)OC(=O)CCCCCCC(=O)N(CCCN(C)C)C(CCCCCCCC)C(=O)NCCCCCC(=O)OCCC12CC3CC(CC(C3)C1)C2` (centres unmarked) [Compound A47], the “Relative Total flux” value was “A (A: ≥2)”.
With `CCCCCCCCC(C(=O)NCCCCCCCCCC(=O)OCCCCCC)N(CCCN(CO)CO)C(=O)CCCCCCCCCC(=O)OC(CCCCCC)CCCCCC` (centres unmarked) [Compound B1] the “Relative Total flux” value was “A (A: ≥2)”.
In the case of `CCCCCCCC(C(=O)NCCCCCCCCCC(=O)OC(CCCCCC)CCCCCC)N(CCN(C)CCO)C(=O)CCCCCCCCCC(=O)OC(CCCCCC)CCCCCC` (centres unmarked) [Compound B9], the “Relative Total flux” value is reported as “A (A: ≥2)”.
In the case of `CCCCCCCCNC(=O)C(CCCCCCCC)N(CCCN(C)CCCO)C(=O)CCCCCCC(=O)OC(CCCCCCCC)CCCCCCCC` (centres unmarked) [Compound B27], the “Relative Total flux” value is reported as “B (B: ≥1 and <2)”.
For `CCCCCCCCNC(=O)C(CCCCCCCC)N(CCCN(CC)CCO)C(=O)CCCCCCC(=O)OC(CCCCCCCC)CCCCCCCC` (centres unmarked) [Compound B28], the “Relative Total flux” value was “A (A: ≥2)”.
With `CCCCC/C=C\C/C=C\CCCCCCCCNC(=O)C(CCCCCCCC)N(CCCCCCCC/C=C\C/C=C\CCCCC)C(=O)CCCN(C)C` (centres unmarked) [Compound C2] the “Relative Total flux” value was “B (B: ≥1 and <2)”.
In the case of `CCCCC/C=C\C/C=C\CCCCCCCCNC(=O)C(CCCCCCCC)N(CCCCCCCC/C=C\C/C=C\CCCCC)C(=O)CCCN1CCCC1` (centres unmarked) [Compound C4], the “Relative Total flux” value is reported as “B (B: ≥1 and <2)”.
`CCCCC/C=C\C/C=C\CCCCCCCCNC(=O)C(CCCCCCCC)N(CCCCCCCC/C=C\C/C=C\CCCCC)C(=O)CCCN(C)CCO` (centres unmarked) [Compound C6] was tested, and the “Relative Total flux” value was “D (D: <0.1.)”.
For `CCCCC/C=C\C/C=C\CCCCCCCCNC(=O)C(CCCCCCCC)N(CCCCCCCC/C=C\C/C=C\CCCCC)C(=O)CCCN(CCO)CCO` (centres unmarked) [Compound C7], the “Relative Total flux” value was “D (D: <0.1.)”.
`CCCCCCCCC(C(=O)NCCCCCCCCCC(=O)OC(CCCCCC)CCCCCC)N(CCCCN1CCN(CCCN(C(=O)CCCCCCCCCC(=O)OC(CCCCCC)CCCCCC)C(CCCCCCCC)C(=O)NCCCCCCCCCC(=O)OC(CCCCCC)CCCCCC)CC1)C(=O)CCCCCCCCCOC(=O)C(CCCCCC)CCCCCC` (centres unmarked) [Compound D3] was tested, and the “Relative Total flux” value was “C (C: ≥0.1 and <1)”.
With `CCCCCCCCC(C(=O)NCCCCCCCCCC(=O)OC(CCCCCC)CCCCCC)N(CCN(C)CCN(C(=O)CCCCCCCCCC(=O)OC(CCCCCC)CCCCCC)C(CCCCCCCC)C(=O)NCCCCCCCCCC(=O)OC(CCCCCC)CCCCCC)C(=O)CCCCCCCCCC(=O)OC(CCCCCC)CCCCCC` (centres unmarked) [Compound D6] the “Relative Total flux” value was “A (A: ≥2)”.
